Reference: patent US11154551B2, “HDAC1,2 inhibitors and methods of using the same” (UNIVERSITY OF UTAH RESEARCH FOUNDATION, priority 2014, dated 2021)

How the values were obtained:
HDAC1 = molecular target: T1, HDAC1 (Homo sapiens, UniProt Q13547); test: in vitro HDAC enzyme assay with recombinant enzyme; settings: from biochemical IC50 values, recombinant enzymes
T1 construct: purchased BPS Biosciences
Source text: (§1) Among class I HDACs, Hdac1,2 share a 50% sequence homology with Hdac3. Therefore, we first determined the selectivity of ACY-957 towards HDAC1 and HDAC2 in in vitro enzyme assays using recombinant enzymes.

HDAC2 = molecular target: T2, HDAC2 (Homo sapiens, UniProt Q92769); test: in vitro HDAC enzyme assay with recombinant enzyme; settings: from biochemical IC50 values, recombinant enzymes
T2 construct: purchased BPS Biosciences
Source text: as §1

Hdac1,2 = test: in vitro enzyme assays, IC50 determination (FIG. 17A); format: biochemical
Method: (A). For IC50 determination, recombinant HDAC enzymes were treated with HDAC1,2 or HDAC3 inhibitors in in vitro HDAC assays. (B). Western blots for H3K23ac using extracts from Pre-B-ALL SupB15 cells treated with increasing dose of HDAC1,2 inhibitor (ACY1035). (C). Hdac1^FI/FI, 2^FI/FI cells were infected with Ad-Cre virus to delete HDAC1 and HDAC2 (HDAC1,2 null) or uninfected (WT). (D). Hdac3^FI/FI cells were either uninfected (WT) or infected with Ad-Cre virus to delete Hdac3. HDAC3-null cells were treated with DMSO or the HDAC1,2 selective inhibitor.
We have determined 2 μM (FIG. 17B) as the minimum dose for the ACY compounds, respectively, that when added to cells increased H3K23ac (a mark targeted by Hdac1,2 but not Hdac3).

[1] = system: SUDHL4 and Karpas-422 cells; test: γH2AX foci formation by immunofluorescence; format: cell-based, human
Method: The percentage of cells with 6 or greater γH2AX foci were counted in three independent experiments and at least 100 cells were counted in each experiment. […] Histones were purified using trichloroacetic acid extraction protocol (see Example 1). Western blot analysis was done with anti-γH2AX and histone H2AX served as the loading control. […] Following DMSO or ACY957 treatment, cells were exposed to a 5Gy dose of ionizing radiation and allowed to recover for 30 minutes prior to chromatin extraction. Western blot analysis was done with anti-γH2AX where total histone H2AX served as a loading control. (D): Karpas-422 cells were micro-irradiated with laser and allowed to recover for 15 minutes before fixation and immunofluorescence staining with anti-γH2AX, anti-HDAC1 and anti-HDAC2 antibodies was done.
(§2) Immunofluorescence. Cells were fixed in either 10% formalin or methanol-acetone (1:1) for 10 min at −20*C. The cells were then permeabilized with 0.5% Triton-X-100 in PBS for 5 min at room temperature (RT), blocked in 10% normal goat serum (Sigma) for 30 min and stained with primary antibody for 1 h at RT. Cells were incubated with secondary antibody (anti-mouse or anti-rabbit IgG, Alexa Fluor 488/546) at a 1:600 dilution for 45 min at RT, and counterstained with Hoechst 33342 (Sigma) at 1:1000 dilution to visualize the nuclei. Images were captured using Zeiss Axioskop mot plus microscope with a 40× lens and analyzed using the AxioVision software.

Karpas-422 cells = test: 53BP1 and γH2AX foci formation after doxorubicin; format: cell-based, human; settings: 24 h pretreatment
Method: After 4 h or 8 h of doxorubicin treatment, cells were fixed and immunofluorescence staining was performed with anti-γH2AX and anti-53BP1 antibodies. Cells shown were representative images based on the quantitation. Merge was the overlay of γH2AX and 53BP1 pictures. (B) and (C): Graphs depicted the percentage of cells with 53BP1 foci present at γH2AX containing break sites and the percentages of cells with γH2AX foci.
as §2
To test this possibility, we treated DLBCL cells with DMSO or ACY957 for 24 h prior to a low dose of doxorubicin (50 nM) treatment. We examined γH2AX and 53BP1 foci formation at 4 h or 8 h post-doxorubicin treatment using immunofluorescence.
The percentage of cells containing 0, 1-5, 6-10 and greater than 10 γH2AX and 53BP1 foci were determined in at least 100 cells from three independent experiments.

[2] = system: non-transformed, mouse bone marrow Pro-B derived Baf3 cells or cord blood stem cells; test: cell death in non-transformed cells; format: cell-based; settings: 2 μM, within 72 hr
Source text: Therefore, transformed lymphoma cells are more sensitive to HDAC1,2 inhibition when compared to the untransformed normal B-cells. HDAC1,2 inhibitor causes replication fork collapse in S-phase to trigger DNA damage response, and transformed cancer cells have increased DNA replication when compared to normal B cells. […] In addition to this property, EZH2^GOF DLBCL cells also have increased DNA repair compared to EZH2^WT DLBCL cells (FIG. 34A), which can also be targeted by HDAC1,2 inhibitor as it impairs the HDAC1,2 regulated DNA repair processes used by EZH2^GOF DLBCL cells for their survival.

T1 sequence (Q13547 whole entry): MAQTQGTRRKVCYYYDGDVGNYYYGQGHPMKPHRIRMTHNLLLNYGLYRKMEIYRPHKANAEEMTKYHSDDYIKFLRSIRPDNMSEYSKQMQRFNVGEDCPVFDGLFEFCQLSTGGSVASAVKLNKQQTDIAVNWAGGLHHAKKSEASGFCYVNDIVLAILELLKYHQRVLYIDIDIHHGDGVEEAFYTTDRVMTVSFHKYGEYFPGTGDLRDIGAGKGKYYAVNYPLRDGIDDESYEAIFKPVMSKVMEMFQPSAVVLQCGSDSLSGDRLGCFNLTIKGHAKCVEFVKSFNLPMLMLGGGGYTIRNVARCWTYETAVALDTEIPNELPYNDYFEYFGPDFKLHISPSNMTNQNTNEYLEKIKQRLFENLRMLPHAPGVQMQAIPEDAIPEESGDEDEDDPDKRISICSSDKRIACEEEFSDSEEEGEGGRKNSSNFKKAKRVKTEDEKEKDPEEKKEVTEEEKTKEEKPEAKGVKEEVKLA
T2 sequence (Q92769 whole entry): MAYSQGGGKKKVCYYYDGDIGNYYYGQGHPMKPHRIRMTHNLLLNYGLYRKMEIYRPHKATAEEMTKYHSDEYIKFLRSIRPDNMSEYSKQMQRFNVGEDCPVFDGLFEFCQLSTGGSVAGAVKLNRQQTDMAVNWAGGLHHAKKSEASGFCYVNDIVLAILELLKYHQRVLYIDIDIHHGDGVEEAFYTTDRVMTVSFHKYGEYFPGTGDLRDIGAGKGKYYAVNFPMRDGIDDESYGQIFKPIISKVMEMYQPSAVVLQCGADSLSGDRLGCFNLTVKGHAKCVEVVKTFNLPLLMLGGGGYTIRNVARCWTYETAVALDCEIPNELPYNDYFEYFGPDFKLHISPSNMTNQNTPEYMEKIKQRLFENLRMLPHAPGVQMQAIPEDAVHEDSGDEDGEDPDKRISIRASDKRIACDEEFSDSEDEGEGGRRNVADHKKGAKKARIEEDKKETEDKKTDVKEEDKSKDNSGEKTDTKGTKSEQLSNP

Question: With Nc1ccc(-c2cccs2)cc1NC(=O)c1ccc2nc(N3CCNCC3)ccc2c1 [ACY-957, N-(2-amino-5-(thiophen-2-yl)phenyl)-2-(piperazin-1-yl)quinoline-6-carboxamide] as the compound, how does the “selectivity for HDAC1 when compared to HDAC3” value (HDAC1) read?
Answer: 185 fold

Question: And the “selectivity for HDAC2 when compared to HDAC3” value (HDAC2)?
Answer: 72 fold

Question: What about the “inhibition of Hdac1,2 activities compared to Hdac3 (IC50 values)” value (Hdac1,2) of the same compound?
Answer: very selectively

Question: What about the “cells with γH2AX foci” value ([1]; 48 h, 2 μM ACY-957, 0.5 μM DZNEP, 0.5 μM GSK126) of the same compound?
Answer: significant increase in the number of cells with greater than six γH2AX foci

Question: What about the “γH2AX foci by immunofluorescence” value ([1]; EZH2GOF DLBCL cells) of the same compound?
Answer: increase in γH2AX

Question: And the “53BP1 foci co-localizing with γH2AX foci” value (Karpas-422 cells; 4 h post-doxorubicin (50 nM))?
Answer: decrease in the number of 53BP1 foci

Question: And the “percentage of cells with 53BP1 foci” value (Karpas-422 cells; 8 h doxorubicin)?
Answer: increased to the level that was observed in the control DMSO-treated cells

Question: What about the “percentage of cells with γH2AX foci” value (Karpas-422 cells; 8 h doxorubicin) of the same compound?
Answer: even higher percentage of cells with 6-10 and greater than 10 γH2AX foci

Question: And the cell death [2]?
Answer: did not cause any cell death
